Data: the supplement of paper PMC10307832

What was measured:
Test in all cases: relative viability (nuclei count vs DMSO), 5 days (fraction); higher = more cells survive
[1] = compound: CC1=C(C(=O)N2C=CSC2=N1)CCN3CCC(=C(C4=CC=CC=C4)C5=CC=C(C=C5)F)CC3 + C[C@]1(O)C[C@@H](c2nc(-c3ccc4ccc(-c5ccccc5)nc4c3)c3c(N)nccn32)C1 [Linsitinib] (partner 1 µM)
Outline: (§1)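 Lung cancer cell lines in 1536-well plates got either a single drug or a fixed anchor-drug dose together with five library-drug doses (not always all listed) in √10 steps, by pin tool, on the day after seeding. Nuclei were counted after 5 days, and relative viability is the treated-to-vehicle ratio of nuclei counts. Values are medians of duplicate plates.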

[2] = compound: CC1=C(C(=O)N2C=CSC2=N1)CCN3CCC(=C(C4=CC=CC=C4)C5=CC=C(C=C5)F)CC3 + Nc1nc2[nH]cc(CCc3ccc(C(=O)N[C@@H](CCC(=O)O)C(=O)O)cc3)c2c(=O)[nH]1 [Pemetrexed] (partner 0.2 µM)
Outline: as §1

[3] = compound: CC1=C(C(=O)N2C=CSC2=N1)CCN3CCC(=C(C4=CC=CC=C4)C5=CC=C(C=C5)F)CC3 + O=C(CCCCCCC(=O)Nc1ccccc1)NO [Vorinostat] (partner 1 µM)
Outline: as §1

[4] = compound: CC1=C(C(=O)N2C=CSC2=N1)CCN3CCC(=C(C4=CC=CC=C4)C5=CC=C(C=C5)F)CC3 + O=C(c1cc(Cc2n[nH]c(=O)c3ccccc23)ccc1F)N1CCN(C(=O)C2CC2)CC1 [Olaparib] (partner 8 µM)
Outline: as §1

Row | Cell Line | relative viability ([1]; first compound 0.08 µM) | relative viability ([1]; first compound 0.253 µM) | relative viability ([1]; first compound 0.8 µM) | relative viability ([1]; first compound 2.53 µM) | relative viability ([1]; first compound 8 µM) | relative viability ([2]; first compound 0.08 µM) | relative viability ([2]; first compound 0.253 µM) | relative viability ([2]; first compound 0.8 µM) | relative viability ([2]; first compound 2.53 µM) | relative viability ([2]; first compound 8 µM) | relative viability ([3]; first compound 0.08 µM) | relative viability ([3]; first compound 0.253 µM) | relative viability ([3]; first compound 0.8 µM) | relative viability ([3]; first compound 2.53 µM) | relative viability ([3]; first compound 8 µM) | relative viability ([4]; first compound 0.08 µM) | relative viability ([4]; first compound 0.253 µM) | relative viability ([4]; first compound 0.8 µM) | relative viability ([4]; first compound 2.53 µM) | relative viability ([4]; first compound 8 µM)
1 | NCI-H838 | 1.02 | 1.02 | 1.02 | 1.31 | 0.809 | 0.254 | 0.252 | 0.259 | 0.246 | 0.223 | 0.688 | 0.692 | 0.738 | 0.8 | 0.573 | 0.747 | 0.801 | 0.849 | 0.925 | 0.604
2 | NCI-H1355 | 0.775 | 0.876 | 0.844 | 0.856 | 0.588 | 1.09 | 1.04 | 1.02 | 1.1 | 0.97 | 0.588 | 0.602 | 0.6 | 0.611 | 0.529 | 0.749 | 0.815 | 0.793 | 0.732 | 0.529
3 | NCI-H1395 | 1.21 | 0.982 | 1.08 | 0.891 | 1.07 | 0.797 | 0.813 | 0.72 | 0.885 | 0.806 | 0.714 | 0.786 | 0.525 | 0.691 | 0.646 | 0.424 | 0.43 | 0.443 | 0.406 | 0.434
4 | NCI-H1437 | – | 1.07 | 1.14 | 1.14 | 0.622 | 0.338 | 0.371 | 0.323 | 0.35 | 0.235 | 0.702 | 0.867 | 0.901 | 0.9 | 0.386 | 0.658 | 0.692 | 0.66 | 0.692 | 0.51
5 | NCI-H1651 | 0.925 | 0.863 | 0.969 | 1.19 | 0.673 | 0.756 | 0.611 | 0.545 | 0.644 | 0.574 | 0.552 | 0.547 | 0.557 | 0.616 | 0.452 | 0.165 | 0.176 | 0.189 | 0.217 | 0.183
6 | NCI-H1666 | 0.86 | 0.734 | 0.768 | 0.886 | 0.621 | 0.838 | 0.853 | 0.884 | 0.89 | 0.754 | 1 | 0.911 | 1.11 | 1.09 | 0.891 | 0.698 | 0.756 | 0.684 | 0.751 | 0.764
7 | NCI-H1734 | 0.766 | 0.825 | 0.948 | 1.1 | 0.429 | 0.487 | 0.452 | 0.391 | 0.424 | 0.399 | 0.881 | 0.652 | 0.734 | 0.86 | 0.747 | 0.554 | 0.526 | 0.624 | 0.767 | 0.396
8 | NCI-H1755 | 1.04 | 0.98 | 0.973 | 0.981 | 0.779 | 0.456 | 0.437 | 0.41 | 0.405 | 0.38 | 0.704 | 0.71 | 0.789 | 0.759 | 0.571 | 0.892 | 0.995 | 0.939 | 0.934 | 0.719
9 | NCI-H1793 | 0.74 | 0.819 | 1.09 | 0.834 | 0.437 | 0.72 | 0.715 | 0.796 | 1.12 | 0.794 | 0.599 | 0.988 | 0.577 | 0.891 | 0.535 | 0.536 | 0.807 | 0.937 | 1.08 | 0.521
10 | NCI-H1915 | 1.16 | 1.12 | 1.07 | 1.18 | 0.832 | 0.576 | 0.44 | 0.493 | 0.517 | 0.44 | 0.554 | 0.584 | 0.538 | 0.524 | 0.383 | 0.254 | 0.272 | 0.284 | 0.238 | 0.223
11 | NCI-H1944 | 1.3 | 1.16 | 1.07 | 1.21 | 1.23 | 0.626 | 0.663 | 0.596 | 0.591 | 0.499 | 0.442 | 0.502 | 0.499 | 0.54 | 0.377 | 0.422 | 0.446 | 0.38 | 0.383 | 0.359
12 | NCI-H1975 | 0.984 | 0.817 | 0.982 | 0.908 | 0.519 | 0.292 | 0.265 | 0.312 | 0.291 | 0.236 | 0.761 | 0.748 | 0.748 | 0.774 | 0.492 | 0.674 | 0.714 | 0.899 | 0.852 | 0.433
13 | NCI-H1993 | 0.763 | – | 0.67 | 0.713 | 0.89 | 0.617 | 0.622 | 0.645 | 0.671 | 0.468 | 0.87 | 0.715 | 0.885 | 0.92 | 0.756 | 1 | 0.944 | 1.01 | 1.3 | 0.838
14 | NCI-H2009 | 1.29 | 1.29 | 1.19 | 1.16 | 1.12 | 1.04 | 1.1 | 1.04 | 1.12 | 0.938 | 0.71 | 0.715 | 0.728 | 0.778 | 0.556 | 0.716 | 0.706 | 0.654 | 0.721 | 0.581
15 | NCI-H2023 | 0.63 | 0.598 | 0.718 | 0.723 | 0.582 | 0.288 | 0.199 | 0.239 | 0.333 | 0.246 | 0.657 | 0.56 | 0.648 | 0.695 | 0.399 | 0.563 | 0.454 | 0.509 | 0.607 | 0.394
16 | NCI-H2085 | 1.1 | 0.92 | 1.02 | 1.06 | 0.7 | 0.966 | 0.964 | 0.759 | 0.955 | 0.883 | 0.85 | 0.827 | 0.758 | 0.807 | 0.707 | 0.805 | 0.776 | 0.807 | 0.783 | 0.735
